# Assay results reported in patent publication US11161856B2 (H. Lundbeck A/S, priority 2017, dated 2021).
# pIC50: −log10 of the molar value.
# How the values were obtained:
# MAGL [1] = target: T1, MAGL (Mus musculus, UniProt O35678); test: Mouse brain proteomes from inhibitor treated mice (oral gavage, brain proteome ABPP 4 h after administration); assay type: in vivo; settings: mouse brain proteome 4 h after administration
# T1 construct: from tissue; host or cells: brain of wild-type C57Bl/6J mice dosed by oral gavage
# T1 sequence (O35678 1-303): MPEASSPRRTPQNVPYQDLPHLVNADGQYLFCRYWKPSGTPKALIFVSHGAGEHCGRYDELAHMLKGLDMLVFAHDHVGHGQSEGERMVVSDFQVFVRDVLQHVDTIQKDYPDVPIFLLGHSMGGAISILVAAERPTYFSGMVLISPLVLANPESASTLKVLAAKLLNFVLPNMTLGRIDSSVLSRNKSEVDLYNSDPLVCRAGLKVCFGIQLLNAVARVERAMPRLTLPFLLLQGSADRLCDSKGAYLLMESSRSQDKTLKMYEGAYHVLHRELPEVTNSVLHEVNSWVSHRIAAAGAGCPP
# Description: Preparation of Mouse Brain Proteomes from Inhibitor Treated Mice.
# Inhibitors were administered to wild-type C57B1/6J by oral gavage in a vehicle of polyethylene glycol. Each animal was sacrificed 4 h following administration and brain proteomes were prepared and analyzed according to previously established methods (See Niphakis, M. J., et al. (2011) ACS Chem. Neurosci. and Long, J. Z., et al. Nat. Chem. Biol. 5:37-44).
# MGLL = target: T2, MGLL (Mus musculus, UniProt O35678); test: In vitro competitive activity-based protein profiling, mouse brain proteome (MGLL); assay type: biochemical; settings: for % Inh MGLL Brain (Mouse, μM): concentration not given (μM)
# T2 construct: Brain; from tissue; host or cells: mouse brain proteome
# T2 sequence (O35678 1-303): T1 sequence (O35678 1-303)
# ABHD6 = target: T3, ABHD6 (Mus musculus, UniProt Q8R2Y0); test: In vitro competitive activity-based protein profiling, mouse brain proteome (ABHD6); assay type: biochemical; settings: for % Inh ABHD6 Brain (Mouse, μM): mouse brain proteome, concentration not given (μM)
# T3 construct: Brain; from tissue; host or cells: mouse brain proteome
# T3 sequence (Q8R2Y0 1-336): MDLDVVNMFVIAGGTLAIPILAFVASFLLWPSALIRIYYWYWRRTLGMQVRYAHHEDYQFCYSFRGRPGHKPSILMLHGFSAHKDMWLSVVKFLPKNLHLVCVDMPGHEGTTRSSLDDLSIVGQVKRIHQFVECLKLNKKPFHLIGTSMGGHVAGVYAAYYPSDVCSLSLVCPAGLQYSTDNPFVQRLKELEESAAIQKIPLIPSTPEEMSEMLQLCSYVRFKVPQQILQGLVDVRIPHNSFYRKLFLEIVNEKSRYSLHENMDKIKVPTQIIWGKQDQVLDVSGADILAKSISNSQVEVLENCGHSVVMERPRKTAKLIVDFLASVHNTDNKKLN
# Description: [The source words this procedure for another target and reports this target under the same test.] In Vitro Competitive Activity-Based Protein Profiling.
# Proteomes (human prefrontal cortex or cell membrane fractions) (50 μL, 1.0 mg/mL total protein concentration) were preincubated with varying concentrations of inhibitors at 37° C. After 30 min, FP-Rh or HT-01 (1.0 μL, 50 μM in DMSO) was added and the mixture was incubated for another 30 min at room temperature. Reactions were quenched with SDS loading buffer (15 μL-4×) and run on SDS-PAGE.
# MAGL [2] = target: T4, MAGL (Homo sapiens, UniProt Q99685); test: In vitro competitive activity-based protein profiling (FP-Rh or HT-01 probe, gel-based); assay type: biochemical; settings: prefrontal cortex (PFC) proteome, concentration not given (μM)
# T4 construct: Proteomes (human prefrontal cortex or cell membrane fractions); from tissue
# T4 sequence (Q99685 1-303): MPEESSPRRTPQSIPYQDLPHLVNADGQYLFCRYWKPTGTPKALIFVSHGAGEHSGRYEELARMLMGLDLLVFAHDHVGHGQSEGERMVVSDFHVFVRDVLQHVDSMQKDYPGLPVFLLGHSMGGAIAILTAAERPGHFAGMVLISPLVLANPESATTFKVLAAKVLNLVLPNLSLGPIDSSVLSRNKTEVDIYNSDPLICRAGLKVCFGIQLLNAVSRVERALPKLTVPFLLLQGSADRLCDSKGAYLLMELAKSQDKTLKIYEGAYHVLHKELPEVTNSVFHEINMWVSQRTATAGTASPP
# Summary of the method: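 Human prefrontal cortex or cell membrane proteomes (1.0 mg/mL total protein) were preincubated with varying inhibitor concentrations for 30 min at 37° C. FP-Rh or HT-01 probe (50 μM DMSO stock) was then added for 30 min at room temperature, and samples were quenched in SDS loading buffer and resolved by SDS-PAGE.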
% Inh 5 mg/kg MGLL (Mouse) (MAGL [1]),pIC50 (MGLL),"% Inh MGLL Brain (Mouse, μM) (MGLL)","% Inh ABHD6 Brain (Mouse, μM) (ABHD6)",pIC50 (ABHD6; mouse proteome),"% Inh MGLL PFC (Human, μM) (MAGL [2])",Structure (SMILES)
### (### is ≥75%),> 7.00,### (### is ≥75%),## (## is between 25 and 75%),< 6.00,–,"CS(=O)(=O)N1CCC2(CC1)CN(c1cc(C(F)(F)F)ccc1CN1CCN(C(=O)OC(C(F)(F)F)C(F)(F)F)CC1)C2 [Example 207, 1,1,1,3,3,3-Hexafluoropropan-2-yl 4-(2-(7-(methylsulfonyl)-2,7-diazaspiro[3,5]nonan-2-yl)-4-(trifluoromethyl)benzyl) piperazine-1-carboxylate]"
–,–,## (## is between 25 and 75%),# (# is ≤25%),–,## (## is between 25 and 75%),"O=C(O)C1CCN(Cc2cc(C(F)(F)F)ccc2CN2CCC3(CC2)CCN(C(=O)OC(C(F)(F)F)C(F)(F)F)C3)CC1 [Example 220, l-(2-((2-(((1,1,1,3,3,3-Hexafluoropropan-2-yl)oxy)carbonyl)-2,8-diazaspiro[4.5]decan-8-yl)methyl)-5-(trifluoromethyl)benzyl) piperidine-4-carboxylic acid]"
–,–,### (### is ≥75%),### (### is ≥75%),–,### (### is ≥75%),"O=C(O)C1CCN(c2cc(CN3CCC4(CC3)CCN(C(=O)OC(C(F)(F)F)C(F)(F)F)C4)ccc2C(F)(F)F)CC1 [Example 221, 1-(5-((2-(((1,1,1,3,3,3-Hexafluoropropan-2-yl)oxy)carbonyl)-2.8-diazaspiro[4.5]decan-8-yl)methyl)-2-(trifluoromethyl)phenyl) piperidine-4-carboxylic acid]"
–,–,### (### is ≥75%),## (## is between 25 and 75%),–,### (### is ≥75%),"O=C(O)C1CCN(c2cc(S(F)(F)(F)(F)F)ccc2CN2CCC3(CC2)CCN(C(=O)OC(C(F)(F)F)C(F)(F)F)C3)CC1 [Example 222, l-(2-((2-(((1,1,1,3,3,3-Hexafluoropropan-2-yl)oxy)carbonyl)-2,8-diazaspiro[4.5]decan-8-yl)methyl)-5-(pentafluoro-16-sulfaneyl)phenyl)piperidine-4-carboxylic acid]"
–,–,# (# is ≤25%),# (# is ≤25%),–,## (## is between 25 and 75%),"O=C(O)C1CCN(Cc2cc(CN3CCC4(CC3)CCN(C(=O)OC(C(F)(F)F)C(F)(F)F)C4)cc(C(F)(F)F)c2)CC1 [Example 223, l-(3-((2-(((1,1,1,3,3,3-Hexafluoropropan-2-yl)oxy)carbonyl)-2,8-diazaspiro[4.5]decan-8-yl)methyl)-5-(trifluoromethyl)benzyl) piperidine-4-carboxylic acid]"
–,–,## (## is between 25 and 75%),# (# is ≤25%),–,# (# is ≤25%),"O=C(O)C1CCN(Cc2cc(CN3CCC4(CC3)CCN(C(=O)OC(C(F)(F)F)C(F)(F)F)C4)ccc2Cl)CC1 [Example 224, l-(2-Chloro-5-((2-(((1,1,1,3,3,3-hexafluoropropan-2-yl)oxy)carbonyl)-2,8-diazaspiro[4.5]decan-8-yl)methyl)benzyl)piperidine-4-carboxylic acid]"
–,–,# (# is ≤25%),## (## is between 25 and 75%),–,## (## is between 25 and 75%),"O=C(O)C1CCN(Cc2ccc(CN3CCC4(CC3)CCN(C(=O)OC(C(F)(F)F)C(F)(F)F)C4)cc2C(F)(F)F)CC1 [Example 225, l-(4-((2-(((1,1,1,3,3,3-Hexafluoropropan-2-yl)oxy)carbonyl)-2,8-diazaspiro[4.5]decan-8-yl)methyl)-2-(trifluoromethyl)benzyl) piperidine-4-carboxylic acid]"
–,–,### (### is ≥75%),## (## is between 25 and 75%),–,### (### is ≥75%),"O=C(O)C1CCN(c2cc(CN3CCC4(CC3)CCN(C(=O)OC(C(F)(F)F)C(F)(F)F)C4)cc(S(F)(F)(F)(F)F)c2)CC1 [Example 226, 1-(3-((2-(((1,1,1,3,3,3-Hexafluoropropan-2-yl)oxy)carbonyl)-2,8-diazaspiro[4.5]decan-8-yl)methyl)-5-(pentafluoro-16-sulfancyl)phenyl)piperidine-4-carboxylic acid]"
–,–,### (### is ≥75%),## (## is between 25 and 75%),–,### (### is ≥75%),"CC1(OCc2cc(N3CCC(C(=O)O)CC3)cc(C(F)(F)F)c2)CCN(C(=O)OC(C(F)(F)F)C(F)(F)F)CC1 [Example 227, l-(3-(((1-(((1,1,1,3,3,3-Hexafluoropropan-2-yl)oxy)carbonyl)-4-melhylpiperidin-4-yl)oxy)methyl)-5-(trifluoromethyl)phenyl) piperidine-4-carboxylic acid]"
